In brackets after ≈: the same amount, converted by molar mass. Read-outs that look alike come from different tables or passages of the source.
Key:
[1] = test system: APAE006 (strain of P. aeruginosa in which all efflux pumps are inactivated); experiment: microbe, parasite or virus in culture; type: cell-based; details: Pseudomonas aeruginosa, read-out: MIC APAE006, APAE006, all efflux pumps inactivated
Procedure: (§1) Bacterial isolates were cultivated from −70° C. frozen stocks by overnight passages at 35° C. in ambient air on Mueller-Hinton agar (Beckton Dickinson, Franklin Lakes, N.J.). Clinical isolates tested were obtained from various geographically diverse hospitals in the US and abroad (Focus Diagnostics, Herndon, Va. and JMI, North Liberty, Iowa). Quality control strains were from the American Type Culture Collection (ATCC; Rockville, Md.). Additional primary panel strains were generated using standard molecular biology techniques.
(§2) Minimum Inhibitory Concentrations (MICs) were determined by the broth microdilution method in accordance with the Clinical and Laboratory Standards Institute (CLSI) guidelines. In brief, organism suspensions were adjusted to a 0.5 McFarland standard to yield a final inoculum between 3×10^5 and 7×10^5 colony-forming units (CFU)/mL. Drug dilutions and inocula were made in sterile, cation adjusted Mueller-Hinton Broth (Beckton Dickinson). An inoculum volume of 100 μL was added to wells containing 100 μL of broth with 2-fold serial dilutions of drug. All inoculated microdilution trays were incubated in ambient air at 35° C. for 18-24 hours. […] Performance of the assay was monitored by the use of laboratory quality-control strains and levofloxacin, a compound with a defined MIC spectrum, in accordance with CLSI guidelines.
(§3) *AECO001 is ATCC25922, AECO063 is ATCC25922 bearing an acrAB mutation, APAE001 is ATCC27853, APAE006 is a strain of P. aeruginosa in which all efflux pumps are inactivated, APAE006+PMBN indicates MICs with the indicated strain in the presence of 8 micrograms per milliliter of polymyxin B nonapeptide, AABA1060 is a clinical isolate of Acinetobacter baumannii, ASAU001 is a laboratory strain of S. aureus (ATCC29213).

AECO001 (ATCC25922) = experiment: MIC broth microdilution, AECO001; type: cell-based, E. coli; details: for MIC: Escherichia coli; for Ratio of MICs on AECO001 [Cpd (A = —CHCH3NH2)/Cpd (A = —C(CH3)2NH2)]: MIC of paired compound with A = —CHCH3NH2 divided by MIC of compound with A = —C(CH3)2NH2, n=2 data, pairs identical except for the A moiety
Procedure: as §1, §2, §3

[2] = test system: APAE006 in the presence of 8 micrograms per milliliter of polymyxin B nonapeptide; type: cell-based, P. aeruginosa; details: APAE006 with 8 micrograms per milliliter polymyxin B nonapeptide
Procedure: as §1, §2, §3

APAE001 (ATCC27853) = experiment: MIC broth microdilution, APAE001; type: cell-based, P. aeruginosa; details: Pseudomonas aeruginosa, ATCC27853, read-out: MIC APAE001, APAE001 (ATCC27853)
Procedure: as §1, §2, §3

[3] = test system: AECO063 (ATCC25922 bearing an acrAB mutation); experiment: microbe, parasite or virus in culture; type: cell-based, E. coli; details: Escherichia coli, ATCC25922, read-out: MIC AECO063
Procedure: as §1, §2, §3

[4] = test system: AABA1060 (clinical isolate of Acinetobacter baumannii); experiment: MIC broth microdilution, AABA1060; type: cell-based; details: Acinetobacter baumannii, read-out: MIC AABA1060
Procedure: as §1, §2, §3

[5] = test system: ASAU001 (laboratory strain of S. aureus, ATCC29213); experiment: MIC broth microdilution, ASAU001; type: cell-based; details: Staphylococcus aureus, ATCC29213, read-out: MIC ASAU001
Procedure: as §1, §2, §3

[6] = ATCC25922, read-out: MIC AECO001
[7] = ATCC25922, read-out: MIC AECO001 HSA AGP

SMILES | MIC [1] [µg/mL] | MIC (AECO001 (ATCC25922); [6]) [µg/mL] | MIC (AECO001 (ATCC25922); [7]) [µg/mL] | MIC APAE006 + PMBN [2] | MIC (APAE001 (ATCC27853)) [µg/mL] | MIC [3] [µg/mL] | MIC [4] [µg/mL] | MIC [5] [µg/mL] | Ratio of MICs on AECO001 [Cpd (A = —CHCH3NH2)/Cpd (A = —C(CH3)2NH2)] (AECO001 (ATCC25922))
C[C@@H](N)[C@H](NC(=O)c1ccc(C#CC#Cc2cnn(C)c2)cc1)C(=O)NO [Example 89-1, N-((2S,3R)-3-amino-1-(hydroxyamino)-1-oxobutan-2-yl)-4-((1-methyl-1H-pyrazol-4-yl)buta-1,3-diynyl)benzamide] | < 2 | < 2 | 2 to 16 (≈ 5.47 to 43.8 µM) | A (MIC's of 2.0 μg/mL or less = A) | < 2 | < 2 | 2 to 16 (≈ 5.47 to 43.8 µM) | 16 to 64 (≈ 43.8 to 175 µM) | –
Cn1cc(C#CC#Cc2ccc(C(=O)N[C@H](C(=O)NO)C(C)(C)N)cc2)cn1 [Example 89-2] | < 2 | < 2 | 2 to 16 (≈ 5.27 to 42.2 µM) | A (MIC's of 2.0 μg/mL or less = A) | < 2 | < 2 | < 2 | 16 to 64 (≈ 42.2 to 169 µM) | 1.6
Cn1cc(C#CC#Cc2ccc(C(=O)N[C@H](C(=O)NO)C(C)(C)O)cc2)cn1 [Example 89-3] | < 2 | < 2 | < 2 | A (MIC's of 2.0 μg/mL or less = A) | < 2 | < 2 | 2 to 16 (≈ 5.26 to 42.1 µM) | 16 to 64 (≈ 42.1 to 168 µM) | –
C[C@@H](N)[C@H](NC(=O)c1ccc(C#CC#Cc2cncnc2)cc1)C(=O)NO [Example 89-4] | < 2 | 16 to 64 (≈ 44 to 176 µM) | 16 to 64 (≈ 44 to 176 µM) | A (MIC's of 2.0 μg/mL or less = A) | 2 to 16 (≈ 5.5 to 44 µM) | 2 to 16 (≈ 5.5 to 44 µM) | 16 to 64 (≈ 44 to 176 µM) | 16 to 64 (≈ 44 to 176 µM) | –
Cn1cnc(C#CC#Cc2ccc(C(=O)N[C@H](C(=O)NO)C(C)(C)N)cc2)c1 [Example 89-5] | < 2 | 2 to 16 (≈ 5.27 to 42.2 µM) | 2 to 16 (≈ 5.27 to 42.2 µM) | A (MIC's of 2.0 μg/mL or less = A) | < 2 | < 2 | 2 to 16 (≈ 5.27 to 42.2 µM) | 16 to 64 (≈ 42.2 to 169 µM) | –
CC(C)(N)[C@H](NC(=O)c1ccc(C#CC#Cc2cncnc2)cc1)C(=O)NO [Example 89-6] | < 2 | 2 to 16 (≈ 5.3 to 42.4 µM) | 2 to 16 (≈ 5.3 to 42.4 µM) | A (MIC's of 2.0 μg/mL or less = A) | < 2 | < 2 | 2 to 16 (≈ 5.3 to 42.4 µM) | 16 to 64 (≈ 42.4 to 170 µM) | –
CC(C)(O)[C@H](NC(=O)c1ccc(C#CC#Cc2cncnc2)cc1)C(=O)NO [Example 89-7] | < 2 | 2 to 16 (≈ 5.29 to 42.3 µM) | 2 to 16 (≈ 5.29 to 42.3 µM) | A (MIC's of 2.0 μg/mL or less = A) | 2 to 16 (≈ 5.29 to 42.3 µM) | < 2 | 16 to 64 (≈ 42.3 to 169 µM) | 16 to 64 (≈ 42.3 to 169 µM) | –
CCC#CC#Cc1ccc(C(=O)N[C@H](C(=O)NO)C(C)(C)N)cc1 [Example 91-1, N—((S)-2-Amino-1-hydroxycarbamoyl-2-methyl-propyl)-4-hexa-1,3-diynyl-benzamide] | < 2 | < 2 | < 2 | A (MIC's of 2.0 μg/mL or less = A) | < 2 | < 2 | < 2 | 2 to 16 (≈ 6.11 to 48.9 µM) | 7.2
C[C@@H](O)[C@H](NC(=O)c1ccc(C#CC#CC2CC2)cc1)C(=O)NO [Example 91-5] | < 2 | < 2 | < 2 | A (MIC's of 2.0 μg/mL or less = A) | < 2 | < 2 | 2 to 16 (≈ 6.13 to 49 µM) | 16 to 64 (≈ 49 to 196 µM) | –
CC(C)(O)[C@H](NC(=O)c1ccc(C#CC#CC2CC2)cc1)C(=O)NO [Example 91-6] | < 2 | < 2 | < 2 | A (MIC's of 2.0 μg/mL or less = A) | < 2 | < 2 | < 2 | 16 to 64 (≈ 47 to 188 µM) | –
CCC#CC#Cc1ccc(C(=O)N[C@H](C(=O)NO)[C@@H](C)N)cc1 [Example 91-7] | < 2 | < 2 | 2 to 16 (≈ 6.38 to 51.1 µM) | A (MIC's of 2.0 μg/mL or less = A) | < 2 | < 2 | 2 to 16 (≈ 6.38 to 51.1 µM) | 2 to 16 (≈ 6.38 to 51.1 µM) | –
CCCC#CC#Cc1ccc(C(=O)N[C@H](C(=O)NO)[C@@H](C)N)cc1 [Example 91-8] | < 2 | < 2 | 2 to 16 (≈ 6.11 to 48.9 µM) | A (MIC's of 2.0 μg/mL or less = A) | < 2 | < 2 | 2 to 16 (≈ 6.11 to 48.9 µM) | 2 to 16 (≈ 6.11 to 48.9 µM) | –
CCCC#CC#Cc1ccc(C(=O)N[C@H](C(=O)NO)C(C)(C)N)cc1 [Example 91-9] | < 2 | < 2 | < 2 | A (MIC's of 2.0 μg/mL or less = A) | < 2 | < 2 | < 2 | 2 to 16 (≈ 5.86 to 46.9 µM) | 5.2
CC(C)(N)C(NC(=O)c1ccc(C#CC#CC2CC2)cc1)C(=O)NO (centres unmarked) [Example 91-10] | < 2 | < 2 | < 2 | A (MIC's of 2.0 μg/mL or less = A) | < 2 | < 2 | < 2 | 16 to 64 (≈ 47.1 to 189 µM) | –
CC(C)(N)[C@@H](NC(=O)c1ccc(C#CC#CC2CC2)cc1)C(=O)NO [Example 91-11] | < 2 | < 2 | 16 to 64 (≈ 47.1 to 189 µM) | A (MIC's of 2.0 μg/mL or less = A) | 2 to 16 (≈ 5.89 to 47.1 µM) | < 2 | 16 to 64 (≈ 47.1 to 189 µM) | 16 to 64 (≈ 47.1 to 189 µM) | –
CC(C)C#CC#Cc1ccc(C(=O)NC(C(=O)NO)[C@@H](C)N)cc1 (some centres unmarked) [Example 91-13] | < 2 | < 2 | 2 to 16 (≈ 6.11 to 48.9 µM) | A (MIC's of 2.0 μg/mL or less = A) | < 2 | < 2 | 2 to 16 (≈ 6.11 to 48.9 µM) | 2 to 16 (≈ 6.11 to 48.9 µM) | –
CC(C)(N)[C@H](NC(=O)c1ccc(C#CC#CC2CCCC2)cc1)C(=O)NO [Example 91-14] | < 2 | < 2 | 2 to 16 (≈ 5.44 to 43.5 µM) | A (MIC's of 2.0 μg/mL or less = A) | < 2 | < 2 | < 2 | 2 to 16 (≈ 5.44 to 43.5 µM) | 3.3
CC(C)C#CC#Cc1ccc(C(=O)N[C@H](C(=O)NO)C(C)(C)N)cc1 [Example 91-15] | < 2 | < 2 | 2 to 16 (≈ 5.86 to 46.9 µM) | A (MIC's of 2.0 μg/mL or less = A) | < 2 | < 2 | < 2 | 2 to 16 (≈ 5.86 to 46.9 µM) | 6.5
CC(C)(N)[C@H](NC(=O)c1ccc(C#CC#CC2CCC2)cc1)C(=O)NO [Example 91-16] | < 2 | < 2 | < 2 | A (MIC's of 2.0 μg/mL or less = A) | < 2 | < 2 | < 2 | 2 to 16 (≈ 5.66 to 45.3 µM) | 2.6
C[C@@H](N)[C@H](NC(=O)c1ccc(C#CC#CC2CCC2)cc1)C(=O)NO [Example 91-17] | < 2 | < 2 | 2 to 16 (≈ 5.89 to 47.1 µM) | A (MIC's of 2.0 μg/mL or less = A) | < 2 | < 2 | 2 to 16 (≈ 5.89 to 47.1 µM) | 16 to 64 (≈ 47.1 to 189 µM) | –
CC(C)CCC#CC#Cc1ccc(C(=O)N[C@H](C(=O)NO)C(C)(C)O)cc1 [Example 91-18] | 2 to 16 (≈ 5.4 to 43.2 µM) | < 2 | < 2 | A (MIC's of 2.0 μg/mL or less = A) | 2 to 16 (≈ 5.4 to 43.2 µM) | < 2 | 2 to 16 (≈ 5.4 to 43.2 µM) | 16 to 64 (≈ 43.2 to 173 µM) | –
CC(C)CC#CC#Cc1ccc(C(=O)N[C@H](C(=O)NO)C(C)(C)O)cc1 [Example 91-19] | < 2 | < 2 | < 2 | A (MIC's of 2.0 μg/mL or less = A) | 2 to 16 (≈ 5.61 to 44.9 µM) | < 2 | 2 to 16 (≈ 5.61 to 44.9 µM) | 16 to 64 (≈ 44.9 to 180 µM) | –

From patent US9617256B2 (priority 2007, dated 2017)
